According to patent publication US6569902B2, “Nitrone inhibition of cancer development” (Oklahoma Medical Research Foundation, priority 2000, dated 2003):
Where two headings read alike, the source gives them in different places.

How the values were obtained:
[1] = tested on: male Wistar rats fed the CDAA diet; assay: Example 1 main study: hepatocarcinogenesis (HCA, HCC, fibrosis) in rats fed the CDAA diet for 70 weeks; assay type: in vivo, rat
Description: Animals, diets and chemical. The protocols were approved prior to the experiments by the Animal Experimentation committee at Nara Medical University according to the Guidelines on Animal Experiments in accordance with Japanese Government Animal Protection and Management Law Number 105 and Japanese Government Notification on Feeding and Safekeeping of Animals Number 6. Male Wistar rats, 6 weeks old, were purchased from JapanSLC, Inc., Hamamatsu, Shizuoka, Japan. Rats were housed 5 each to a plastic cage with white flake bedding (Kansai Animal Corp., City of Kyoto, Kyoto, Japan) in an air-conditioned room (25±3° C. temperature, 55 ±8% relative humidity, 10-12/h ventilation and 12-h dark/light cycle). Rats were used for the experimentation after a 1-week acclimation on a basal diet (CE-1, Clea Japan, Meguro, Tokyo, Japan) and allowed free access to food and tap water throughout the acclimation and experimental periods. Body weight, food consumption and water intake were monitored weekly. The CDAA diet and a control CSAA diet were obtained from Dyets Inc., Bethlehem, PA.
Main study. A total of 60 rats were equally divided into 6 groups. Group 1 received the CDAA diet for 70 weeks. […] The time-point of 26 weeks after the commencement, when treatments were changed in groups 3 and 4, was decided according to the results of the pilot study (see the Results and Discussion section below). All surviving rats were sacrificed 70 weeks after the commencement, and the livers were taken. Two serial 4-μm-thick, 10%-neutrally-buffered-folmalin-fixed 9 for 24 h), paraffin-embedded liver specimens were prepared and stained routine H&E and Masson's trichrome procedures. The H&E-stained liver specimens were histologically examined according to the aforementioned criteria (Maronpot et al. 1986), and the incidences of HCA and HCC were determined. Grade of fibrosis were evaluated by analyzing percent area occupied by collagen fiber in the Masson's trichrome-stained liver specimens using an IPAP image analyzing system (Sumika Technoservice, Corp., City of Osaka, Osaka, Japan).
Statistical analyses. Statistical analyses were carried out using an InStat software (GraphPad Software, Inc., San Diego, Cali.). Fisher's exact test was used to assess statistical significance of inter-group differences of the lesion incidences. Student-Newrnan-Keuls multiple comparison test was used to assess statistical significance of inter-group differences of means after one-way ANOVA to determine variations among group means, followed by Bartlett's test to determine homogeneity of variance.

[2] = tested on: livers of male Wistar rats fed the CDAA diet; assay: Example 2: histological liver injury (fibrosis, fatty liver); assay type: in vivo, rat; conditions: high dose 0.090%, CDAA diet 16 weeks
Description: Animal experiment. After acclimation, rats were divided equally into 22 groups consisting of 5 animals each. Animals in group 1 received the CDAA diet alone. […] Groups 5-7, 8-10, 11-13 and 14-16 received the CDAA diet containing the low, middle, and high doses of 4-OHPBN, 3-OHPBN, 2-OHPBN and 2-SPBN, respectively. Group 17 received the CSAA diet alone. […] All animals were sacrificed by exsanguination under light ether anesthesia 16 weeks after commencement, and the livers excised. Slices 5-mm-thick were taken from the left lateral, median and right lateral lobes of the livers, fixed in 10% neutrally-buffered formalin for 24 hours and then embedded in paraffin. Five serial 4-μm-thick sections were prepared from each fixed liver slice and used for histological and immunohistochemical assessment as described below. The remaining portions of the livers were immediately frozen under liquid nitrogen and stored at −80° C. until use.
Histological and immunohistochemical assessments. Histological assessment was performed using sections routinely stained with hematoxylin/eosin and Masson's trichrome procedures. Gradation of fibrosis was quantitatively evaluated in groups 1, 4, 7, 10, 13, 16 and 17 by calculating the percent area occupied by collagen fiber stained blue by Masson's trichrome method using an IPAP image analyzing system (Sumika Technoservice Corp., City of Osaka, Osaka, Japan). GST-P-positive lesions were visualized immunohistochemically. Lesions consisting of more than 6 cells were quantified using the IPAP system as described elsewhere (Kishida et al. 2000). The amount of apoptosis and the cellular proliferative activity were determined in groups 1, 4, 7, 10, 13, 16 and 17, using the double staining techniques by combination of the GST-P immunohistochemistry as above with the in situ terminal deoxynucleotidyl transferase-mediated dUTP-biotin nick end-labeling method (Gold et al. 1994) and the enhanced polymer one-step staining method for proliferating cell nuclear antigen (Tsutsumi et al. 1995), respectively. Numbers of apoptotic and proliferating hepatocytes among the 1000-5000 hepatocytes in GST-P-positive lesions and 5000 hepatocytes in surrounding tissue were counted under light microscopy to obtain percentages that are hereafter referred as apoptotic and proliferative indices, respectively.
Statistics. Inter-group differences in quantitative data for multiple groups were recognized to be significant, when p values smaller than 0.05 were obtained by the Dunnett multiple comparison test employed after one-way analysis of variance to determine the variation among the group means followed by the Bartlett's test to determine the homogeniety of variance.

rats fed the CDAA diet = conditions: cited from earlier work; for size of neoplastic nodules: 12 weeks, CDAA only 1.92; for nodule number: CDAA only 190
[3] = tested on: rat liver microsome peroxidation; conditions: read-out: IC50, inhibition of rat liver microsome peroxidation; cited from earlier work
[4] = cited from earlier work
[5] = group 2: CDAA diet with PBN 0.065% in drinking water for 70 weeks, CDAA alone 57.1%
[6] = group 3: CDAA with PBN for first 26 weeks, then CDAA alone 44 weeks
[7] = group 4: CDAA alone 26 weeks, then CDAA with PBN for last 44 weeks
[8] = group 6: CSAA control diet with PBN 70 weeks (stated for groups 5 or 6)

CC(C)(C)[N+]([O-])=Cc1ccccc1 [PBN, phenyl N-tert-butyl nitrone]
carcinogenicity of PBN itself ([1]; 70-week study, PBN in drinking water): not carcinogenic itself | HCA incidence [1, 5]: 25.0% | HCC incidence [1, 5]: 25.0% | grade of fibrosis, percent of liver specimen occupied by fiber ([1]; group 2: PBN 70 weeks, group 1 (CDAA alone) 13.32%): 9.95% | HCA incidence [1, 6]: 28.6% | HCC incidence [1, 6]: 0% | grade of fibrosis, percent of liver specimen occupied by fiber ([1]; group 3: PBN first 26 weeks, group 1 13.32%): 8.71% | HCA incidence [1, 7]: 62.5% | HCC incidence [1, 7]: 0% | grade of fibrosis, percent of liver specimen occupied by fiber ([1]; group 4: PBN last 44 weeks, group 1 13.32%): 12.86% | grade of fibrosis ([1]; group 6: CSAA control diet with PBN 70 weeks (one value stated for groups 5 or 6)): 1.61% | HCA incidence [1, 8]: 0% | HCC incidence [1, 8]: 0% | grade of fibrosis versus group 1 [2]: significantly lower | size of neoplastic nodules (rats fed the CDAA diet; CDAA plus PBN 6 mg/kg-day): 0.33 mm^3 | size of neoplastic nodules (rats fed the CDAA diet; CDAA plus PBN 30 mg/kg-day): 0.17 mm^3 | size of neoplastic nodules (rats fed the CDAA diet; CDAA plus PBN 60 mg/kg-day): 0.10 mm^3 | nodule number (rats fed the CDAA diet; PBN 6 mg/kg-day): 170 per mm^3 | nodule number (rats fed the CDAA diet; PBN 30 mg/kg-day): 149 per mm^3 | nodule number (rats fed the CDAA diet; PBN 60 mg/kg-day): 142 per mm^3 | reduction of the amount of PGE2 in the CD-livers (rats fed the CDAA diet; highest dose): about 50% | decrease of nodule size (rats fed the CDAA diet; highest level of PBN): 95% | 8-OHdG content (marker of DNA oxidation) in the CD-livers (rats fed the CDAA diet; increasing concentrations of PBN): reduced | decrease of nodule size (rats fed the CDAA diet; lowest level of PBN (6 mg/kg)): 83% | decrease of nodule number (rats fed the CDAA diet; lowest level of PBN): 11% | effect on COX-II expression (rats fed the CDAA diet; mRNA or protein level): no effect | connective tissue proliferation (rats fed the CDAA diet; rat, in vivo): significantly reduced | IC50 [3]: 5 mM | half-life ([4]; in rats): about 132 minutes | tissue distribution ([4]; rat, in vivo): readily and rapidly distributed almost equally to all tissues
